Article PMC5025651, “Reprofiled anthelmintics abate hypervirulent stationary-phase Clostridium difficile” (Scientific Reports, 2016)
Values after ≈ are worked out from the molar mass of the structure shown. Values belong to the compound of their own block, whether it stands above or below them.

Legend:
[1] = system: S. epidermidis 1457; assay: MIC by broth microdilution; assay type: cell-based; conditions: Staphylococcus epidermidis; S. epidermidis 1457; CAMHB, aerobic; duplicate; read-out: MIC
[2] = system: B. subtilis ATCC 6051; assay: MIC by broth microdilution; assay type: cell-based; conditions: Bacillus subtilis, ATCC6051; B. subtilis ATCC 6051; CAMHB, aerobic; duplicate; read-out: MIC
[3] = system: C. sporogenes ATCC 15579; assay: MIC by broth microdilution; assay type: cell-based; conditions: Clostridium sporogenes, ATCC15579, BHIS, anaerobic, duplicate
[4] = system: P. aeruginosa PAO1; assay: MIC by broth microdilution; assay type: cell-based; conditions: Pseudomonas aeruginosa; P. aeruginosa PAO1; CAMHB, aerobic; duplicate; read-out: MIC
[5] = system: B. fragilis Strain CL05T00C42; assay: MIC by broth microdilution; assay type: cell-based; conditions: Bacteroides fragilis; B. fragilis CL05T00C42; supplemented Brucella broth, anaerobic; duplicate; read-out: MIC
[6] = system: L. reuteri Strain CF48-3A; assay: MIC by broth microdilution; assay type: cell-based, Lactobacillus reuteri; conditions: Limosilactobacillus reuteri; L. reuteri CF48-3A; CAMHB with 5% laked horse blood, ~48 h; duplicate; read-out: MIC
[7] = system: P. nigrescens ATCC 33563; assay: MIC by broth microdilution; assay type: cell-based; conditions: Prevotella nigrescens, ATCC33563; P. nigrescens ATCC 33563; supplemented Brucella broth, anaerobic; duplicate; read-out: MIC
[8] = system: B. thetaiotaomicron ATCC 29148; assay: microbe, parasite or virus in culture; assay type: cell-based; conditions: Bacteroides thetaiotaomicron, ATCC29148; B. thetaiotaomicron ATCC 29148; supplemented Brucella broth, anaerobic; duplicate; read-out: MIC
[9] = system: C. clostridioforme ATCC 25537; assay: MIC by broth microdilution; assay type: cell-based, Clostridium clostridioforme; conditions: Clostridium, ATCC25537; C. clostridioforme ATCC 25537; BHIS, anaerobic; duplicate; read-out: MIC
[10] = system: C. difficile strain 4118 (CD4118, ATCC BAA-1870, ribotype 027); assay: MIC by broth microdilution; assay type: cell-based, Clostridium difficile
[11] = system: L. plantarum ATCC 8014; assay: MIC by broth microdilution; assay type: cell-based; conditions: Lactiplantibacillus plantarum, ATCC8014; L. plantarum ATCC 8014; CAMHB with 5% laked horse blood, ~48 h; duplicate; read-out: MIC
[12] = system: B. breve Strain EX336960VC19; assay: MIC by broth microdilution; assay type: cell-based; conditions: Bifidobacterium breve; B. breve EX336960VC19; LSM broth, anaerobic; duplicate; read-out: MIC
[13] = system: panel of obligate aerobes, facultative anaerobes and obligate anaerobes; assay: Antibacterial spectrum, MIC against a panel of bacteria; assay type: cell-based; conditions: whole panel of Table S3
[14] = system: B. longum subsp. longum Strain 44B; assay: MIC by broth microdilution; assay type: cell-based; conditions: Bifidobacterium longum; B. longum subsp. longum 44B; LSM broth, anaerobic; duplicate; read-out: MIC
[15] = system: S. aureus RN4220; assay: MIC by broth microdilution; assay type: cell-based; conditions: Staphylococcus aureus, CAMHB, aerobic, duplicate
[16] = system: P. distasonis ATCC 8503; assay: MIC by broth microdilution; assay type: cell-based; conditions: Parabacteroides distasonis, ATCC8503; P. distasonis ATCC 8503; supplemented Brucella broth, anaerobic; duplicate; read-out: MIC
[17] = system: L. johnsonii Strain 135-1-CHN; assay: MIC by broth microdilution; assay type: cell-based; conditions: Lactobacillus johnsonii, STRAIN1351CHN; L. johnsonii 135-1-CHN; CAMHB with 5% laked horse blood, ~48 h; duplicate; read-out: MIC
[18] = system: C. difficile strain 630 (CD630, ATCC BAA-1382-FZ, ribotype 012); assay: MIC by broth microdilution; assay type: cell-based, Clostridium difficile
[19] = system: A. baumannii M2; assay: MIC by broth microdilution; assay type: cell-based; conditions: Acinetobacter baumannii; A. baumannii M2; CAMHB, aerobic; duplicate; read-out: MIC
[20] = system: C. difficile isolate 20111163 (ribotype 024); assay: MIC by broth microdilution; assay type: cell-based, Clostridium difficile; conditions: Clostridioides difficile; isolate 20111163, ribotype 024; duplicate; read-out: MIC
[21] = system: C. difficile isolate 20110566 (ribotype 020); assay: MIC by broth microdilution; assay type: cell-based, Clostridium difficile; conditions: Clostridioides difficile; isolate 20110566, ribotype 020; duplicate; read-out: MIC
[22] = system: C. difficile isolate 20121412 (ribotype 047); assay: MIC by broth microdilution; assay type: cell-based, Clostridium difficile; conditions: Clostridioides difficile; isolate 20121412, ribotype 047; duplicate; read-out: MIC
[23] = system: C. difficile isolate 20120016 (ribotype 019); assay: MIC by broth microdilution; assay type: cell-based, Clostridium difficile; conditions: Clostridioides difficile; isolate 20120016, ribotype 019; duplicate; read-out: MIC
[24] = system: C. difficile isolate 20100584 (ribotype 014); assay: MIC by broth microdilution; assay type: cell-based, Clostridium difficile; conditions: Clostridioides difficile; isolate 20100584, ribotype 014; duplicate; read-out: MIC
[25] = system: C. difficile isolate 20110986 (ribotype 078); assay: MIC by broth microdilution; assay type: cell-based, Clostridium difficile; conditions: Clostridioides difficile; isolate 20110986, ribotype 078; duplicate; read-out: MIC
[26] = system: C. difficile isolate 20110973 (ribotype 106); assay: MIC by broth microdilution; assay type: cell-based, Clostridium difficile; conditions: Clostridioides difficile; isolate 20110973, ribotype 106; duplicate; read-out: MIC
[27] = system: C. difficile isolate 20110742 (ribotype 002); assay: MIC by broth microdilution; assay type: cell-based, Clostridium difficile; conditions: Clostridioides difficile; isolate 20110742, ribotype 002; duplicate; read-out: MIC
[28] = system: C. difficile isolate 20110869 (ribotype 001_072); assay: MIC by broth microdilution; assay type: cell-based, Clostridium difficile; conditions: Clostridioides difficile; isolate 20110869, ribotype 001_072; duplicate; read-out: MIC
[29] = system: C. difficile isolate 20110961 (ribotype A12); assay: MIC by broth microdilution; assay type: cell-based, Clostridium difficile; conditions: Clostridioides difficile; isolate 20110961, ribotype A12; duplicate; read-out: MIC
[30] = system: C. difficile isolate 20110960 (ribotype 017); assay: MIC by broth microdilution; assay type: cell-based, Clostridium difficile; conditions: Clostridioides difficile; isolate 20110960, ribotype 017; duplicate; read-out: MIC
[31] = system: C. difficile isolate 20100422 (ribotype 054); assay: MIC by broth microdilution; assay type: cell-based, Clostridium difficile; conditions: Clostridioides difficile; isolate 20100422, ribotype 054; duplicate; read-out: MIC
[32] = Hemolysis assay; assay type: cell-based; conditions: sheep, sheep red blood cells (3% suspension), pH 7.4; 32 µg/mL, 1 h, 37 °C; 1% Triton X-100 positive control; triplicate; read-out: Hemolysis (%)
Description: Sheep red blood cells (Innovative Research, Novi, MI, USA) were washed three times with PBS pH 7.4. A 3% cell suspension in PBS (100 μL) was added to test compounds in PBS (100 μL, to a final concentration of 32 μg/mL), and then incubated at 37 °C for 1 h. The plate was centrifuged at 500 × g for 10 min, and supernatants (100 μL) were transferred to a clean 96-well plate. Hemolysis was determined by measuring absorbance at 540 nm, with 1% Triton X-100 as the positive control and 0.5% DMSO in PBS as the negative control. Hemolysis assays were performed in triplicate.

[33] = system: C. difficile isolate 20121190 (ribotype 126); assay: MIC by broth microdilution; assay type: cell-based, Clostridium difficile; conditions: Clostridioides difficile; isolate 20121190, ribotype 126; duplicate; read-out: MIC
[34] = system: 16 C. difficile isolates; assay: MIC by broth microdilution, summary over 16 C. difficile isolates; assay type: cell-based, Clostridium difficile; conditions: n = 2; for MIC50 / MIC90: Clostridioides difficile; for MIC50: MIC at which 50% of the 16 isolates are inhibited, read-out: MIC50; for MIC90: MIC at which 90% of the 16 isolates are inhibited, read-out: MIC90; for MIC Range: range over 16 C. difficile isolates
[35] = system: C. difficile isolate 20110740 (ribotype 018); assay: MIC by broth microdilution; assay type: cell-based, Clostridium difficile; conditions: Clostridioides difficile; isolate 20110740, ribotype 018; duplicate; read-out: MIC

Structure (SMILES): O=C(Nc1ccc(Oc2ccc(Cl)cc2)cc1)c1cc(I)cc(I)c1 [Compound 5i]
- MIC [1]: > 32 µg/mL
- MIC [2]: > 32 µg/mL
- MIC [3]: > 32 µg/mL
- MIC [4]: > 32 µg/mL
- MIC [5]: > 32 µg/mL
- MIC [6]: > 32 µg/mL
- MIC [7]: > 32 µg/mL
- MIC [8]: > 32 µg/mL
- MIC [9]: > 32 µg/mL
- MIC ([10]; Clostridioides difficile, ATCCBAA1870, BHIS broth, anaerobic, 20–24 h, n = 2, read-out: MIC C. difficile 4118): > 32 µg/mL
- in vitro activity against CD4118 (in words) ([10]; growth inhibition, MIC assay): inactive
- MIC [11]: > 32 µg/mL
- MIC [12]: > 32 µg/mL
- antibacterial activity (in words) [13]: lacked antibacterial activity
- MIC [14]: > 32 µg/mL
- MIC [15]: > 32 µg/mL
- MIC [16]: > 32 µg/mL
- MIC [17]: > 32 µg/mL
- MIC ([18]; Clostridioides difficile, ATCCBAA1382, BHIS broth, anaerobic, 20–24 h, n = 2): > 32 µg/mL
- in vitro activity against CD630 (in words) ([18]; growth inhibition, MIC assay): inactive
- MIC [19]: > 32 µg/mL

Structure (SMILES): O=C(Nc1ccc([N+](=O)[O-])cc1Cl)c1cc(Cl)ccc1O [Niclosamide, niclosamide]
- MIC [20]: 1 µg/mL (≈ 3.06 µM)
- MIC [21]: 1 µg/mL (≈ 3.06 µM)
- MIC [22]: 1 µg/mL (≈ 3.06 µM)
- MIC [23]: 0.5 µg/mL (≈ 1.53 µM)
- MIC [24]: 0.5 µg/mL (≈ 1.53 µM)
- MIC [25]: 1 µg/mL (≈ 3.06 µM)
- MIC [26]: 1 µg/mL (≈ 3.06 µM)
- MIC [27]: 1 µg/mL (≈ 3.06 µM)
- MIC [28]: 2 µg/mL (≈ 6.11 µM)
- MIC [29]: 1 µg/mL (≈ 3.06 µM)
- MIC [30]: 1 µg/mL (≈ 3.06 µM)
- MIC [31]: 0.5 µg/mL (≈ 1.53 µM)
- hemolysis at 1 h, 32 µg/mL [32]: < 1%
- MIC [33]: 0.5 µg/mL (≈ 1.53 µM)
- MIC50 [34]: 1 µg/mL (≈ 3.06 µM)
- MIC90 [34]: 2 µg/mL (≈ 6.11 µM)
- MIC Range [34]: 0.5 to 4 µg/mL
- MIC [35]: 1 µg/mL (≈ 3.06 µM)

- MIC [20]: 0.5 µg/mL (≈ 1.25 µM)
- MIC [21]: 1 µg/mL (≈ 2.49 µM)
- MIC [22]: 2 µg/mL (≈ 4.98 µM)
- MIC [23]: 0.5 µg/mL (≈ 1.25 µM)
- MIC [24]: 1 µg/mL (≈ 2.49 µM)
- MIC [25]: 1 µg/mL (≈ 2.49 µM)
- MIC [26]: 1 µg/mL (≈ 2.49 µM)
- MIC [27]: 1 µg/mL (≈ 2.49 µM)
- MIC [28]: 0.5 to 1 µg/mL (≈ 1.25 to 2.49 µM)
- MIC [29]: 1 µg/mL (≈ 2.49 µM)
- MIC [30]: 0.5 µg/mL (≈ 1.25 µM)
- MIC [31]: 1 µg/mL (≈ 2.49 µM)
- MIC [33]: 1 µg/mL (≈ 2.49 µM)
- MIC50 [34]: 1 µg/mL (≈ 2.49 µM)
- MIC90 [34]: 1 µg/mL (≈ 2.49 µM)
- MIC Range [34]: 0.5 to 2 µg/mL
- MIC [35]: 1 µg/mL (≈ 2.49 µM)
Structure (SMILES): O=C(Nc1cc(Cl)cc(Cl)c1O)c1c(O)c(Cl)cc(Cl)c1Cl [Oxyclozanide, oxyclozanide]
- hemolysis at 1 h, 32 µg/mL [32]: < 1%
